The record followed here is US20120015907A1, “Furopyridine compounds and uses thereof” (NOVARTIS AG, priority 2010, published 2012).

In one assay the target is T1, HCV polymerase (Hepatitis C virus genotype 1b, UniProt Q9WMX2).
T1 construct: (His)6 (C)
The assay is described as follows: biochemical. Particulars: polymerase assay of Biological Example 1; read-out: NS5B polymerase IC50.

Assay [1] concerns HCV replicon I389luc-ubi-neo/NS3-3'/ET in ET (Huh-lucubineo-ET) cells. In words: Replicon assay (Biological Example 2), luciferase read-out. Format: cell-based. Particulars: Hepatitis C virus, luciferase activity 48 hours after compound addition. The protocol:
A cell line, ET (Huh-lucubineo-ET) is used for screening of compounds for inhibiting HCV RNA dependent RNA polymerase. The ET cell line is stably transfected with RNA transcripts harboring a I389luc-ubi-neo/NS3-3′/ET; replicon with firefly luciferase-ubiquitin-neomycin phosphotransferase fusion protein and EMCV-IRES driven NS3-5B polyprotein containing the cell culture adaptive mutations (E1202G; […]; K1846T) (Krieger at al, 2001 and unpublished). The ET cells are grown in DMEM (Dulbeco's Modified Eagle's Medium), supplemented with 10% fetal calf serum, 2 mM Glutamine, Penicillin (100 IU/mL)/Streptomycin (100 μg/mL), 1× nonessential amino acids, and 250 μg/mL G418 (“Geneticin”). Reagents are all available through Life Technologies (Bethesda, Md.). The cells are plated at 0.5-1.0×10^4 cells/well in the 96 well plates and incubated for 24 hrs before adding test compound. The compounds are added to the cells to achieve a final concentration of 0.1 nM to 50 μM and a final DMSO (dimethylsulfoxide) concentration of 0.5%. Luciferase activity is measured 48 hours later by adding a lysis buffer and the substrate (Catalog number Glo-lysis buffer E2661 and Bright-Glo luciferase system E2620 Promega, Madison, Wis.). Cells should not be too confluent during the assay. Percent inhibition of replication data is plotted relative to no compound control. To determine the EC50 (effective concentration at which 50% of the maximum inhibition is observed), a 10 point, 3-fold serial dilution for each compound is used, which spans a concentration range of 1000 fold. EC50 values were calculated by fitting % inhibition at each concentration to the following equation:
% inhibition=100%/[(EC50/[I])^b+1]
where b is Hill's coefficient.
(In antiviral work, replicon cells carry a viral genome segment that copies itself.)

In the case of `CNC(=O)c1c(-c2ccc(Cl)cc2)oc2nc(N(CCCCS(C)(=O)=O)S(C)(=O)=O)c(I)cc12` [Example 18.995, 2-(4-chlorophenyl)-5-iodo-N-methyl-6-(N-(4-(methylsulfonyl)butyl)methylsulfonamido)furo[2,3-b]pyridine-3-carboxamide], the IC50 on HCV polymerase was 0.014 µM; in assay [1], at most 0.1 µM.
On the same counts, the results for `CNC(=O)c1c(-c2ccc(Cl)cc2F)oc2nc(N(C)S(C)(=O)=O)c(I)cc12` [Example 2.95, 2-(4-chloro-2-fluorophenyl)-5-iodo-N-methyl-6-(N-methylmethylsulfonamido)furo[2,3-b]pyridine-3-carboxamide] are 0.008 µM and at most 0.1 µM.
The corresponding values for `CNC(=O)c1c(-c2ccc(C3CC3)cc2)oc2nc(N(CCCCS(C)(=O)=O)S(C)(=O)=O)c(C3CC3)cc12` [Example 25.9, 5-cyclopropyl-2-(4-cyclopropylphenyl)-N-methyl-6-(N-(4-(methylsulfonyl)butyl)methylsulfonamido)furo[2,3-b]pyridine-3-carboxamide] are 0.003 µM and at most 0.1 µM.
On the same counts, the results for `CNC(=O)c1c(-c2ccc(C)cc2)oc2nc(N(CCCC3CCCS3(=O)=O)S(C)(=O)=O)c(I)cc12` (centres unmarked) [Example 18.99, 6-{[3-(1,1-Dioxo-tetrahydrophiophen-2-yl)-propyl]-methanesulfonyl-amino}-5-iodo-2-p-totyl-furo[2,3-b]pyridine-3-carboxylic acid methylamide] are 0.005 µM and at most 0.1 µM.
Regarding `CNC(=O)c1c(-c2ccc(C)cc2)oc2nc(N(CCCCS(C)(=O)=O)S(C)(=O)=O)c(I)cc12` [Example 18.996, 5-iodo-N-methyl-6-(N-(4-(methylsulfonyl)butyl)methylsulfonamido)-2-p-tolylfuro[2,3-b]pyridine-3-carboxamide], the IC50 on HCV polymerase was 0.004 µM; in assay [1], at most 0.1 µM.
On the same counts, the results for `CNC(=O)c1c(-c2ccc(F)cc2)oc2nc3c(cc12)CCCCCCN3S(C)(=O)=O` [Example 36.4, 2-(4-Fluoro-phenyl)-11-methanesulfonyl-6,7,8,9,10,11-hexahydro-5H-1-oxa-11,12-diaza-cyclonona[f]indene-3-carboxylic acid methylamide] are 0.005 µM and at most 0.1 µM.
Regarding `CCc1cc2c(C(=O)NC)c(-c3ccc(F)cc3)oc2nc1N(CCCCS(C)(=O)=O)S(C)(=O)=O` [Example 23, 5-Ethyl-2-(4-fluoro-phenyl)-6-[methanesulfonyl-(4-methanesulfonyl-butyl)-amino]-furo[2,3-b]pyridine-3-carboxylic acid methylamide], the figures for the IC50 (on HCV polymerase; in assay [1]) were 0.022 µM and at most 0.1 µM, respectively.
The corresponding values for `CNC(=O)c1c(-c2ccc(C)cc2)oc2nc(N(CCCCC(=O)OC)S(C)(=O)=O)c(C3CC3)cc12` [Example 25.2, methyl 5-(N-(5-cyclopropyl-3-(methylcarbamoyl)-2-p-tolylfuro[2,3-b]pyridin-6-yl)methylsulfonamido) pentanoate] are 0.003 µM and at most 0.1 µM.
The corresponding values for `CCc1cc2c(C(=O)NC)c(-c3ccc(F)cc3)oc2nc1N(CCCS(C)(=O)=O)S(C)(=O)=O` [Example 21.992, 5-ethyl-2-(4-fluorophenyl)-N-methyl-6-(N-(3-(methylsulfonyl)propyl)methylsulfonamido)furo[2,3-b]pyridine-3-carboxamide] are 0.065 µM and at most 0.1 µM.
With `CNC(=O)c1c(-c2ccc(Cl)cc2)oc2nc(N(CCCC(C)(C)C(=O)O)S(C)(=O)=O)c(C3CC3)cc12` [Example 28.3, 5-(N-(2-(4-chlorophenyl)-5-cyclopropyl-3-(methylcarbamoyl)furo[2,3-b]pyridin-6-yl)methylsulfonamido)-2,2-dimethylpentanoic acid], the IC50 is 0.002 µM at HCV polymerase and at most 0.1 µM in assay [1].
On the same counts, the results for `CCc1cc2c(C(=O)NC)c(-c3ccc(F)cc3)oc2nc1N(CCCN1CCCS1(=O)=O)S(C)(=O)=O` [Example 23.1, 6-{[3-(1,1-Dioxo-isothiazolidin-2-yl)-propyl]-methanesulfonyl-amino}-5-ethyl-2-(4-fluoro-phenyl)-furo[2,3-b]pyridine-3-carboxylic acid methylamide] are 0.045 µM and at most 0.1 µM.
Turning to `CNC(=O)c1c(-c2ccc(F)cc2)oc2nc(N(CCCC3CCCS3(=O)=O)S(C)(=O)=O)c(C3CC3)cc12` (centres unmarked) [Example 24.6, 5-Cyclopropyl-6-{[3-(1,1-dioxo-tetrahydrothiophen-2-yl)-propyl]-methanesulfonyl-amino}-2-(4-fluoro-phenyl)-furo[2,3-b]pyridine-3-carboxylic acid methylamide], in assay [1], the IC50 is at most 0.1 µM.
Take `CNC(=O)c1c(-c2ccc(F)cc2)oc2nc(N(CCC(C)O)S(C)(=O)=O)c(C3CC3)cc12` (centres unmarked) [Example 26.5, 5-cyclopropyl-2-(4-fluorophenyl)-6-(N-(3-hydroxybutyl)methylsulfonamido)-N-methylfuro[2,3-b]pyridine-3-carboxamide]: the results for the IC50 (on HCV polymerase; in assay [1]) were 0.01 µM and at most 0.1 µM, respectively.
The corresponding values for `CNC(=O)c1c(-c2ccc(Cl)cc2F)oc2nc(N(C)S(C)(=O)=O)c(C3CC3)cc12` [Example 2.97] are 0.004 µM and at most 0.1 µM.
On the same counts, the results for `CNC(=O)c1c(-c2ccc(F)cc2)oc2nc3c(cc12)C(C)CCCCN3S(C)(=O)=O` (centres unmarked) [Example 36.3, 2-(4-Fluoro-phenyl)-10-methanesulfonyl-5-methyl-5,6,7,8,9,10-hexahydro-1-oxa-10,11-diaza-cycloocta[f]indene-3-carboxylic acid methylamide] are 0.07 µM and at most 0.1 µM.
For `CNC(=O)c1c(-c2ccc(F)cc2)oc2nc(N(CCCC3CCCS3(=O)=O)S(C)(=O)=O)c(C3CC3)cc12` (racemic) [Example 24.4], the figures for the IC50 (on HCV polymerase; in assay [1]) were 0.009 µM and at most 0.1 µM, respectively.
On the same counts, the results for `CNC(=O)c1c(-c2ccc(C3CC3)cc2F)oc2nc(N(C)S(C)(=O)=O)c(C3CC3)cc12` [Example 2.98, 5-cyclopropyl-2-(4-cyclopropyl-2-fluorophenyl)-N-methyl-6-(N-methylmethylsulfonamido)furo[2,3-b]pyridine-3-carboxamide] are 0.005 µM and at most 0.1 µM.
On the same counts, the results for `CNC(=O)c1c(-c2ccc(Oc3ccccc3)cc2)oc2nc(N(CCCC(C)(C)C(=O)O)S(C)(=O)=O)c(C3CC3)cc12` [Example 27.4, 5-(N-(5-cyclopropyl-3-(methylcarbamoyl)-2-(4-phenoxyphenyl)furo[2,3-b]pyridin-6-yl)methylsulfonamido)-2,2-dimethylpentanoic acid] are 0.001 µM and at most 0.1 µM.
On the same counts, the results for `CCc1cc2c(C(=O)NC)c(-c3ccc(F)cc3)oc2nc1N(CCCCC(C)=O)S(C)(=O)=O` [Example 22.92, 5-ethyl-2-(4-fluorophenyl)-N-methyl-6-(N-(5-oxohexyl)methylsulfonamido)furo[2,3-b]pyridine-3-carboxamide] are 0.032 µM and at most 0.1 µM.
For the molecule `CNC(=O)c1c(-c2ccc(F)cc2)oc2nc(N(C)S(C)(=O)=O)c(CCCCCNC(=O)OC(C)(C)C)cc12` [Example 14.1, tert-butyl 5-(2-(4-fluorophenyl)-3-(methylcarbamoyl)-6-(N-methylmethylsulfonamido)furo[2,3-b]pyridin-5-yl)pentylcarbamate], in assay [1], the IC50 is at most 0.1 µM.

Usually IC50 stands for the concentration needed to halve the response being measured.
